Assay results as given in US12258327B2, “5-membered heteroaryl-containing aminopyridine compounds as EGFR inhibitors” (YUHAN CORPORATION, priority 2021, dated 2025).
Like-named read-outs stand apart in the source and are kept apart here.

Columns and labels:
[1] = target: EGFR L858R/C797S (Homo sapiens, UniProt P00533, C797S/L858R); assay: Biochemical EGFR kinase assay (Lance Ultra TR-FRET), double mutant L858R/C797S
In short: (§1)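 Kinase activity is measured by TR-FRET phosphopeptide detection. Compounds span 0.003 μM to 10 μM; the 1 h reaction at room temperature is quenched with EDTA, then labelled antibody (2 nM) is incubated 60 min before reading.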

[2] = target: EGFR L858R/T790M/C797S (Homo sapiens, UniProt P00533, C797S/L858R/T790M); assay: Biochemical EGFR kinase assay (Lance Ultra TR-FRET), triple mutant L858R/T790M/C797S
In short: as §1

[3] = target: EGFR del19/T790M/C797S (Homo sapiens, UniProt P00533, C797S/DEL746-750/T790M); assay: Biochemical EGFR kinase assay (Lance Ultra TR-FRET), triple mutant del19/T790M/C797S
In short: as §1

[4] = target: EGFR del19/C797S (Homo sapiens, UniProt P00533, C797S/DEL746-750); assay: Biochemical EGFR kinase assay (Lance Ultra TR-FRET), double mutant del19/C797S
In short: as §1

[5] = target: EGFR wildtype (WT) (Homo sapiens, UniProt P00533); assay: Biochemical EGFR kinase assay (Lance Ultra TR-FRET), wildtype
In short: as §1

[6] = IC50 L858R/C797S (nM) 100 μM ATP, 100 μM ATP
[7] = IC50 L858R/T790M/C797S (nM) 100 μM ATP, 100 μM ATP
[8] = IC50 del19/T790M/C797S (nM) 100 μM ATP, 100 μM ATP
[9] = IC50 del19/C797S (nM) 100 μM ATP, 100 μM ATP
[10] = IC50 WT (nM) 100 μM ATP, 100 μM ATP
[11] = Km ATP, read-out: IC50 L858R/C797S (nM) Km ATP
[12] = Km ATP, read-out: IC50 L858R/T790M/C797S (nM) Km ATP
[13] = Km ATP, read-out: IC50 del19/T790M/C797S (nM) Km ATP
[14] = Km ATP, read-out: IC50 del19/C797S (nM) Km ATP
[15] = Km ATP, read-out: IC50 WT (nM) Km ATP

EGFR del19/C797S, sequence (P00533 with tags, fused parts or gaps DEL746-750/C797S): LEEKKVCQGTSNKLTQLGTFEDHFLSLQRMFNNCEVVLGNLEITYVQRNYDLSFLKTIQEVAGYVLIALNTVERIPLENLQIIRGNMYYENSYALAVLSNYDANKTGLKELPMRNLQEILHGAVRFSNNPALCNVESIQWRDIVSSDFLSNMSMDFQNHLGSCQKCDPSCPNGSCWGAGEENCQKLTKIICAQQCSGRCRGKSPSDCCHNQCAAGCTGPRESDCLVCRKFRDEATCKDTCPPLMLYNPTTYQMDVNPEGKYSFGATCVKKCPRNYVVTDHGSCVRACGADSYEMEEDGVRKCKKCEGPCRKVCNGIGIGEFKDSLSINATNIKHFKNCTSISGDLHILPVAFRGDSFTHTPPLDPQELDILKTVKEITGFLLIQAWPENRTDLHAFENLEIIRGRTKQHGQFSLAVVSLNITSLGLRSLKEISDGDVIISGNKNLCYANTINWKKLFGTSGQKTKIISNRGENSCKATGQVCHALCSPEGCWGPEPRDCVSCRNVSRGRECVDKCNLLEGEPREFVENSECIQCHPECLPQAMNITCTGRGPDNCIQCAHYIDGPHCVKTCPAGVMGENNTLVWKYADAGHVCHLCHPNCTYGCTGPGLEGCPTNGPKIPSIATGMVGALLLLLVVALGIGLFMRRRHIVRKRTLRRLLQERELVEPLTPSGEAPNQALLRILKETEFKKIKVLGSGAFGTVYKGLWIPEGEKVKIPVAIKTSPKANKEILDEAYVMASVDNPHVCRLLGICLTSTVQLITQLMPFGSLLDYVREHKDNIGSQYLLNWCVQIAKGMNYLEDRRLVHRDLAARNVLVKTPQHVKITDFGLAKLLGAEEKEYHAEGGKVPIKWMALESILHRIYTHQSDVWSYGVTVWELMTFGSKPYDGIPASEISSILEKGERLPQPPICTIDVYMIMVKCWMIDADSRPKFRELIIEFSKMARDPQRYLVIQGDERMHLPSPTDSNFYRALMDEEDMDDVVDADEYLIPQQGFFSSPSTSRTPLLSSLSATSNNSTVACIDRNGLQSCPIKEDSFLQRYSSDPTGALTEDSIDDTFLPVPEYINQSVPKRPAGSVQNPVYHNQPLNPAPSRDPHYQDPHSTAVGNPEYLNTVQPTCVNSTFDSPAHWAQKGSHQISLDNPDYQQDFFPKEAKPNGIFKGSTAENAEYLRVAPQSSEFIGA
EGFR del19/T790M/C797S, sequence (P00533 with tags, fused parts or gaps DEL746-750/T790M/C797S): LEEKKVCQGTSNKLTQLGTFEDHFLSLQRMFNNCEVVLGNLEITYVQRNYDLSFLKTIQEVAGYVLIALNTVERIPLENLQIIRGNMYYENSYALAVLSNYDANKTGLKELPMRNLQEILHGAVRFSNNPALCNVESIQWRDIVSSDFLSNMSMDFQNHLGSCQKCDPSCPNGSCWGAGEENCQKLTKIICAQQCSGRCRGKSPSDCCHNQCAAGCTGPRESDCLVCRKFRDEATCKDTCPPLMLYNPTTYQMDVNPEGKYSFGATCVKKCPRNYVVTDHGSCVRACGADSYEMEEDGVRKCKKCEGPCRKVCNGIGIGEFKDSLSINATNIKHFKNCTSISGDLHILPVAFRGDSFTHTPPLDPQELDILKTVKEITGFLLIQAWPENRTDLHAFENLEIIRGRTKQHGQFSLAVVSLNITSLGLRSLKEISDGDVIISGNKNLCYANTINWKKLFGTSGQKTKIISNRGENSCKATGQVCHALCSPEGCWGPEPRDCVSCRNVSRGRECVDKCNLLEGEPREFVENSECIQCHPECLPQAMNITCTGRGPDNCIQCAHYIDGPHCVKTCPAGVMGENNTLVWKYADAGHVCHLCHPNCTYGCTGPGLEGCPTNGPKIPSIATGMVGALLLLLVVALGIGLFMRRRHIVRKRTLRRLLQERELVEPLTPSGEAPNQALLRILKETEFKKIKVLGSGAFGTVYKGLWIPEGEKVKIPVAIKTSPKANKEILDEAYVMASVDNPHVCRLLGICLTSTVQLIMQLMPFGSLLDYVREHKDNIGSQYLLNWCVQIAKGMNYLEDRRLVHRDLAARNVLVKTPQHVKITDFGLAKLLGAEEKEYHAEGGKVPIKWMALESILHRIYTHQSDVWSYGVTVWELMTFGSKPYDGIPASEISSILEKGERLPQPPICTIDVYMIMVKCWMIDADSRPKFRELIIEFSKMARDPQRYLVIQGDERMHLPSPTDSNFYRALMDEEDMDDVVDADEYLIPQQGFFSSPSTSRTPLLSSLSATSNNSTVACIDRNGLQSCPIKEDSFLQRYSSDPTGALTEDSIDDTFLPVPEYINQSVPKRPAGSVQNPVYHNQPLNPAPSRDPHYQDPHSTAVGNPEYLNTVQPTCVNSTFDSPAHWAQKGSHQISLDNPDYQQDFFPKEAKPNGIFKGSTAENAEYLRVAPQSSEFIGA
EGFR L858R/T790M/C797S, sequence (P00533 25-1210 T790M/C797S/L858R): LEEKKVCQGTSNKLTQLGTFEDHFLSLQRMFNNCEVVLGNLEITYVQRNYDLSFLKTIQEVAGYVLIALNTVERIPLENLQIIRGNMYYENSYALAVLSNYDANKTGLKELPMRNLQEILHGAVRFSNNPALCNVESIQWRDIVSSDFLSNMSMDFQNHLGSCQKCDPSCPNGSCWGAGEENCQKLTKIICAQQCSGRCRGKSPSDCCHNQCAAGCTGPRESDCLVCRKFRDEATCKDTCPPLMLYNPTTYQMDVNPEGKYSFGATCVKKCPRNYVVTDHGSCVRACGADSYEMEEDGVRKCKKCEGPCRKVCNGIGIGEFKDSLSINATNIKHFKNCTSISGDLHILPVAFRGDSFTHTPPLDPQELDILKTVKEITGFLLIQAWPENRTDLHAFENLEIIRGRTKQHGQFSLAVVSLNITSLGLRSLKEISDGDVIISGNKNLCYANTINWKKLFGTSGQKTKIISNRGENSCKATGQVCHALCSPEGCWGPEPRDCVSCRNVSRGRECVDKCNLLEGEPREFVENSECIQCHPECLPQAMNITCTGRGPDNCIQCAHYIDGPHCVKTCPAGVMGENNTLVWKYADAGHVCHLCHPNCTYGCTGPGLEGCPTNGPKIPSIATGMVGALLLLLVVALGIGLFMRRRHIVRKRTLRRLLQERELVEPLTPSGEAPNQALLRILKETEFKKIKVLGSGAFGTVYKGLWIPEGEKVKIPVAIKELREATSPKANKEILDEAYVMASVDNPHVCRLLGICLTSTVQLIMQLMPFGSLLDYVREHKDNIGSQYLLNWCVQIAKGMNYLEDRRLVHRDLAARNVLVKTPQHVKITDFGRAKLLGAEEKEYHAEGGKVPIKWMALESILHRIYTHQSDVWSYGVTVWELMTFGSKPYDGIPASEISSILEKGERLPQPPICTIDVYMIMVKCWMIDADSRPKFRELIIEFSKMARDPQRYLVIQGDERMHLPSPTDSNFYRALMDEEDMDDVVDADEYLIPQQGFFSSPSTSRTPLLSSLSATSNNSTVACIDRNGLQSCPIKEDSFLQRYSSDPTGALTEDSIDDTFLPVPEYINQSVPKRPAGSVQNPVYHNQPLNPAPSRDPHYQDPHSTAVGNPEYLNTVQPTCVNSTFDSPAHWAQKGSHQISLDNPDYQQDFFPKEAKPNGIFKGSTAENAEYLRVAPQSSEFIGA
EGFR L858R/C797S, sequence (P00533 25-1210 C797S/L858R): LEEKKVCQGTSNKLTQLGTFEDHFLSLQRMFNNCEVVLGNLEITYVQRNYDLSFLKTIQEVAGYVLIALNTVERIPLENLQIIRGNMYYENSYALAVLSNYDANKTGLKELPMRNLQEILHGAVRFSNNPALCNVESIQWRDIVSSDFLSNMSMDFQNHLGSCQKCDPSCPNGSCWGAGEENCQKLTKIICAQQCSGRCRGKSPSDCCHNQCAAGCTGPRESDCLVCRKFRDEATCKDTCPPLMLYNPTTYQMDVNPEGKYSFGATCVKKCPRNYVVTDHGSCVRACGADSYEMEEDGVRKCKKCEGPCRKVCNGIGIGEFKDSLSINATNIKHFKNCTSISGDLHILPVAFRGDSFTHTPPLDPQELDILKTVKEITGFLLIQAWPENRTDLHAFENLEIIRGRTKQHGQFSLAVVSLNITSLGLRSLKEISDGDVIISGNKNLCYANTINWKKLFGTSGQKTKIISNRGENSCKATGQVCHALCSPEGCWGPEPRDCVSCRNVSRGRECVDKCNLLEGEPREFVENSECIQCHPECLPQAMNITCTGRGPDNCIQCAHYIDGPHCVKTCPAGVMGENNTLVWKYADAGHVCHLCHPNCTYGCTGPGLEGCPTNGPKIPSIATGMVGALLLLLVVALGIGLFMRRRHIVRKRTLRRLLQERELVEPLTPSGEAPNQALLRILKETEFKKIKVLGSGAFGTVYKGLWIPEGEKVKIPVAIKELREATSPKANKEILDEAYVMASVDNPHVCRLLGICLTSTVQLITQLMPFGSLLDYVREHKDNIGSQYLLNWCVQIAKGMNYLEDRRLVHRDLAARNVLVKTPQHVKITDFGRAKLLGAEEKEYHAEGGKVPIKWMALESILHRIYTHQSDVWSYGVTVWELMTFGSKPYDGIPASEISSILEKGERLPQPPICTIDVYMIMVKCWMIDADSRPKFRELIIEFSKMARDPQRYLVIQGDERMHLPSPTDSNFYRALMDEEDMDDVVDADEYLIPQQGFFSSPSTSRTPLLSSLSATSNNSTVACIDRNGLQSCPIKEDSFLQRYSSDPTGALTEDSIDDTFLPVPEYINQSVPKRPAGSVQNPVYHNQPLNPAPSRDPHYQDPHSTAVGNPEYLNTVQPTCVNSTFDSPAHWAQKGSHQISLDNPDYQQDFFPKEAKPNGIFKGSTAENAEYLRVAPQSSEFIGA

SMILES | IC50 [1, 6] [nM] | IC50 [2, 7] [nM] | IC50 [3, 8] [nM] | IC50 [4, 9] [nM] | IC50 [5, 10] [nM] | IC50 [1, 11] [nM] | IC50 [2, 12] [nM] | IC50 [3, 13] [nM] | IC50 [4, 14] [nM] | IC50 [5, 15] [nM]
CN(C)C[C@H]1C[C@@H](CNc2cc(Nc3ccnc(-c4cnn(S(=O)(=O)C5CC5)c4)n3)ncc2-c2ccn(C)n2)C1 [Example 234, N^2-(2-(1-(Cyclopropylsulfonyl)-1H-pyrazol-4-yl)pyrimidin-4-yl)-N^4-(((1s,3s)-3-((dimethylamino)methyl)cyclobutyl)methyl)-5-(1-methyl-1H-pyrazol-3-yl)pyridine-2,4-diamine] | 8.7 | 0.2 | 0.1 | 1.7 | 1790 |  |  |  |  | 
CN(CC(F)F)C(=O)[C@H]1CC[C@@H](Nc2cc(Nc3ccnc(-c4cnn(S(=O)(=O)C5CC5)c4)n3)ncc2-c2ccn(C)n2)CC1 [Example 235, (1s,4s)-4-((2-((2-(1-(Cyclopropylsulfonyl)-1H-pyrazol-4-yl)pyrimidin-4-yl)amino)-5-(1-methyl-1H-pyrazol-3-yl)pyridin-4-yl)amino)-N-(2,2-difluoroethyl)-N-methylcyclohexane-1-carboxamide] | 7 | 0.2 | 0.2 | 1.1 | 616 | 0.3 | 0.1 | 0.2 | 2.5 | 1.6
CN(C)C(=O)C[C@H]1CC[C@@H](Nc2cc(Nc3ccnc(-c4cnn(S(=O)(=O)C5CC5)c4)n3)ncc2-c2ccn(C)n2)CC1 [Example 236, 2-((1s,4s)-4-((2-((2-(1-(Cyclopropylsulfonyl)-1H-pyrazol-4-yl)pyrimidin-4-yl)amino)-5-(1-methyl-1H-pyrazol-3-yl)pyridin-4-yl)amino)cyclohexyl)-N,N-dimethylacetamide] | 2 | 0.3 | 0.3 | 0.3 | 565 | 0.1 | 0.2 | 0.3 | 0.2 | 0.5
CN(CC(F)F)C[C@H]1CC[C@@H](Nc2cc(Nc3ccnc(-c4cnn(S(=O)(=O)C5CC5)c4)n3)ncc2-c2ccn(C)n2)CC1 [Example 237, N^2-(2-(1-(Cyclopropylsulfonyl)-1H-pyrazol-4-yl)pyrimidin-4-yl)-N^4-((1s,4s)-4-(((2,2-difluoroethyl)(methyl)amino)methyl)cyclohexyl)-5-(1-methyl-1H-pyrazol-3-yl)pyridine-2,4-diamine] | 61.4 | 5.4 | 7.4 | 6.7 | 2800 | 6.5 | 3 | 12.1 | 17.5 | 15.5
CN(C)CC1(C)CCC(Nc2cc(Nc3ccnc(-c4cnn(S(=O)(=O)C5CC5)c4)n3)ncc2-c2ccn(C)n2)CC1 (stereo not shown) [Example 238, N^2-(2-(1-(Cyclopropylsulfonyl)-1H-pyrazol-4-yl)pyrimidin-4-yl)-N^4-(4-((dimethylamino)methyl)-4-methylcyclohexyl)-5-(1-methyl-1H-pyrazol-3-yl)pyridine-2,4-diamine] | 178 | 0.6 | 0.6 | 4.9 | 3600 | 7.1 | 0.4 | 0.8 | 2 | 7.5
CN(C)C[C@H]1C[C@H](CNc2cc(Nc3ccnc(-c4cnn(S(=O)(=O)C5CC5)c4)n3)ncc2-c2ccn(C)n2)C1 [Example 239, N^2-(2-(1-(Cyclopropylsulfonyl)-1H-pyrazol-4-yl)pyrimidin-4-yl)-N^4-(((1r,3r)-3-((dimethylamino)methyl)cyclobutyl)methyl)-5-(1-methyl-1H-pyrazol-3-yl)pyridine-2,4-diamine] |  |  |  |  |  | 3.6 | 0.1 | 0.3 | 4.6 | 10.1
CN(C)CC[C@H]1CC[C@@H](Nc2cc(Nc3ccnc(-c4cnn(S(=O)(=O)C5CC5)c4)n3)ncc2-c2ccn(C)n2)CC1 [Example 240, N^2-(2-(1-(Cyclopropylsulfonyl)-1H-pyrazol-4-yl)pyrimidin-4-yl)-N^4-((1s,4s)-4-(2-(dimethylamino)ethyl)cyclohexyl)-5-(1-methyl-1H-pyrazol-3-yl)pyridine-2,4-diamine] |  |  |  |  |  | 0.04 | 0.1 | 0.4 | 0.2 | 0.2
C[C@]1(O)CC[C@@H](Nc2cc(Nc3ccnc(-c4cnn(S(=O)(=O)C5CC5)c4)n3)ncc2-c2ccn(CC(F)F)n2)CC1 [Example 241, (1s,4s)-4-((2-((2-(1-(Cyclopropylsulfonyl)-1H-pyrazol-4-yl)pyrimidin-4-yl)amino)-5-(1-(2,2-difluoroethyl)-1H-pyrazol-3-yl)pyridin-4-yl)amino)-1-methylcyclohexan-1-ol] |  | 0.7 | 0.6 | 0.5 | 2980 | 0.5 | 0.3 | 0.5 | 0.5 | 5
O=S(=O)(C1CC1)n1cc(-c2nccc(Nc3cc(N[C@H]4CC[C@@H](NCCF)CC4)c(-c4ccn(CC(F)F)n4)cn3)n2)cn1 [Example 242, N^2-(2-(1-(Cyclopropylsulfonyl)-1H-pyrazol-4-yl)pyrimidin-4-yl)-5-(1-(2,2-difluoroethyl)-1H-pyrazol-3-yl)-N^4-((1s,4s)-4-((2-fluoroethyl)amino)cyclohexyl)pyridine-2,4-diamine] | 20.9 | 0.2 | 0.2 | 0.8 | 6320 | 1.2 | 0.1 | 0.1 | 0.4 | 6
CC(C)(O)[C@H]1CC[C@@H](Nc2cc(Nc3ccnc(-c4cnn(S(=O)(=O)C5CC5)c4)n3)ncc2-c2ccn(CC(F)F)n2)CC1 [Example 243, 2-((1s,4s)-4-((2-((2-(1-(Cyclopropylsulfonyl)-1H-pyrazol-4-yl)pyrimidin-4-yl)amino)-5-(1-(2,2-difluoroethyl)-1H-pyrazol-3-yl)pyridin-4-yl)amino)cyclohexyl)propan-2-ol] | 10 | 1 | 2.7 | 2 | 4010 | 4.5 | 0.2 |  | 1.7 | 8.4
O=S(=O)(C1CC1)n1cc(-c2nccc(Nc3cc(N[C@H]4CC[C@@H](CO)CC4)c(-c4ccn(CC(F)F)n4)cn3)n2)cn1 [Example 244, ((1s,4s)-4-((2-((2-(1-(Cyclopropylsulfonyl)-1H-pyrazol-4-yl)pyrimidin-4-yl)amino)-5-(1-(2,2-difluoroethyl)-1H-pyrazol-3-yl)pyridin-4-yl)amino)cyclohexyl)methanol] | 1.9 | 0.4 | 0.2 | 0.5 | 975 | 0.5 | 0.1 | 0.3 | 0.6 | 2.3
CN(CC(F)F)C[C@H]1CC[C@@H](Nc2cc(Nc3ccnc(-c4cnn(S(=O)(=O)C5CC5)c4)n3)ncc2-c2ccn(CC(F)F)n2)CC1 [Example 245, N^2-(2-(1-(Cyclopropylsulfonyl)-1H-pyrazol-4-yl)pyrimidin-4-yl)-N^4-((1s,4s)-4-(((2,2-difluoroethyl)(methyl)amino)methyl)cyclohexyl)-5-(1-(2,2-difluoroethyl)-1H-pyrazol-3-yl)pyridine-2,4-diamine] | 259 | 12.8 | 13.1 | 27.8 | > 10000 |  |  |  |  | 
CN(C)CC1(C)CCC(Nc2cc(Nc3ccnc(-c4cnn(S(=O)(=O)C5CC5)c4)n3)ncc2-c2ccn(CC(F)F)n2)CC1 (stereo not shown) [Example 246, N^2-(2-(1-(Cyclopropylsulfonyl)-1H-pyrazol-4-yl)pyrimidin-4-yl)-5-(1-(2,2-difluoroethyl)-1H-pyrazol-3-yl)-N^4-(4-((dimethylamino)methyl)-4-methylcyclohexyl)pyridine-2,4-diamine] | 400 | 1.1 | 0.9 | 10.2 | 4510 | 19.9 | 0.3 | 1 | 7.1 | 15.4
O=S(=O)(C1CC1)n1cc(-c2nccc(Nc3cc(N[C@H]4CC[C@@H](CN5CCC5)CC4)c(-c4ccn(CC(F)F)n4)cn3)n2)cn1 [Example 247, N^4-((1s,4s)-4-(Azetidin-1-ylmethyl)cyclohexyl)-N^2-(2-(1-(cyclopropylsulfonyl)-1H-pyrazol-4-yl)pyrimidin-4-yl)-5-(1-(2,2-difluoroethyl)-1H-pyrazol-3-yl)pyridine-2,4-diamine] | 0.7 | 0.1 | 0.2 | 0.3 | 150 | 0.2 | 0.1 | 0.3 | 0.2 | 0.7
